Assay results as given in the NIST ThermoML archive (doi:10.1021/je034290l).
± gives the expanded uncertainty stated by the source.

How the values were obtained:
[1] = Liquid
[2] = refractive index (Na D-line) (dimensionless); conditions: 318.15 K; 101.33 kPa; Liquid; Standard Abbe refractometry

SMILES: CCCC(=O)OC [methyl butanoate]
- mass density ([1]; 318.15 K, 101.33 kPa): 870.24 ± 0.45 kg/m3
- vapor or sublimation pressure ([1]; 347.53 K): 40.12 ± 0.7 kPa
- vapor or sublimation pressure ([1]; 348.26 K): 41.24 ± 0.7 kPa
- vapor or sublimation pressure ([1]; 349.21 K): 42.76 ± 0.71 kPa
- vapor or sublimation pressure ([1]; 349.79 K): 43.84 ± 0.71 kPa
- vapor or sublimation pressure ([1]; 350.81 K): 45.25 ± 0.72 kPa
- vapor or sublimation pressure ([1]; 351.98 K): 46.74 ± 0.73 kPa
- vapor or sublimation pressure ([1]; 352.34 K): 47.92 ± 0.73 kPa
- vapor or sublimation pressure ([1]; 353.21 K): 49.41 ± 0.74 kPa
- vapor or sublimation pressure ([1]; 353.72 K): 50.85 ± 0.75 kPa
- vapor or sublimation pressure ([1]; 354.96 K): 51.83 ± 0.76 kPa
- vapor or sublimation pressure ([1]; 355.26 K): 53.5 ± 0.76 kPa
- vapor or sublimation pressure ([1]; 356.06 K): 54.82 ± 0.77 kPa
- vapor or sublimation pressure ([1]; 356.79 K): 55.89 ± 0.77 kPa
- vapor or sublimation pressure ([1]; 357.44 K): 57.38 ± 0.78 kPa
- vapor or sublimation pressure ([1]; 358.24 K): 58.61 ± 0.79 kPa
- vapor or sublimation pressure ([1]; 358.9 K): 60.02 ± 0.79 kPa
- vapor or sublimation pressure ([1]; 359.7 K): 61.42 ± 0.8 kPa
- vapor or sublimation pressure ([1]; 360.43 K): 62.63 ± 0.81 kPa
- vapor or sublimation pressure ([1]; 360.93 K): 64.13 ± 0.82 kPa
- vapor or sublimation pressure ([1]; 362.03 K): 66.54 ± 0.83 kPa
- vapor or sublimation pressure ([1]; 362.31 K): 68.03 ± 0.83 kPa
- vapor or sublimation pressure ([1]; 363.2 K): 69.42 ± 0.84 kPa
- vapor or sublimation pressure ([1]; 363.49 K): 70.61 ± 0.85 kPa
- vapor or sublimation pressure ([1]; 363.78 K): 71.18 ± 0.85 kPa
- vapor or sublimation pressure ([1]; 365.02 K): 73.5 ± 0.86 kPa
- vapor or sublimation pressure ([1]; 365.38 K): 74.77 ± 0.87 kPa
- vapor or sublimation pressure ([1]; 365.97 K): 75.89 ± 0.87 kPa
- vapor or sublimation pressure ([1]; 366.41 K): 77.39 ± 0.88 kPa
- vapor or sublimation pressure ([1]; 366.84 K): 78.61 ± 0.89 kPa
- vapor or sublimation pressure ([1]; 367.57 K): 80.14 ± 0.9 kPa
- vapor or sublimation pressure ([1]; 368.01 K): 81.39 ± 0.9 kPa
- vapor or sublimation pressure ([1]; 368.59 K): 82.57 ± 0.91 kPa
- vapor or sublimation pressure ([1]; 369.25 K): 83.91 ± 0.91 kPa
- vapor or sublimation pressure ([1]; 369.95 K): 85.71 ± 0.92 kPa
- vapor or sublimation pressure ([1]; 370.19 K): 86.58 ± 0.93 kPa
- vapor or sublimation pressure ([1]; 370.49 K): 87.94 ± 0.93 kPa
- vapor or sublimation pressure ([1]; 371.07 K): 88.35 ± 0.94 kPa
- vapor or sublimation pressure ([1]; 371.72 K): 90.8 ± 0.97 kPa
- vapor or sublimation pressure ([1]; 371.79 K): 92.1 ± 0.97 kPa
- vapor or sublimation pressure ([1]; 372.31 K): 93.26 ± 0.96 kPa
- vapor or sublimation pressure ([1]; 372.89 K): 94.59 ± 0.97 kPa
- vapor or sublimation pressure ([1]; 373.47 K): 95.92 ± 0.97 kPa
- vapor or sublimation pressure ([1]; 373.84 K): 97.46 ± 0.98 kPa
- vapor or sublimation pressure ([1]; 374.57 K): 99.14 ± 0.99 kPa
- vapor or sublimation pressure ([1]; 374.77 K): 100.04 ± 0.99 kPa
- vapor or sublimation pressure ([1]; 375.24 K): 101.32 ± 1 kPa
- vapor or sublimation pressure ([1]; 375.37 K): 102.58 ± 1 kPa
- vapor or sublimation pressure ([1]; 375.81 K): 104.06 ± 1 kPa
- vapor or sublimation pressure ([1]; 376.02 K): 105.47 ± 1 kPa
- vapor or sublimation pressure ([1]; 376.39 K): 106.5 ± 1 kPa
- vapor or sublimation pressure ([1]; 376.97 K): 107.92 ± 1 kPa
- vapor or sublimation pressure ([1]; 377.55 K): 109.23 ± 1 kPa
- vapor or sublimation pressure ([1]; 378.14 K): 110.58 ± 1.1 kPa
- vapor or sublimation pressure ([1]; 378.36 K): 112.15 ± 1.1 kPa
- vapor or sublimation pressure ([1]; 378.79 K): 113.36 ± 1.1 kPa
- vapor or sublimation pressure ([1]; 378.94 K): 114.67 ± 1.1 kPa
- vapor or sublimation pressure ([1]; 379.3 K): 115.84 ± 1.1 kPa
- vapor or sublimation pressure ([1]; 379.67 K): 117.27 ± 1.1 kPa
- vapor or sublimation pressure ([1]; 380.03 K): 118.72 ± 1.1 kPa
- vapor or sublimation pressure ([1]; 380.69 K): 120.15 ± 1.1 kPa
- vapor or sublimation pressure ([1]; 381.2 K): 121.36 ± 1.1 kPa
- vapor or sublimation pressure ([1]; 381.56 K): 122.59 ± 1.1 kPa
- vapor or sublimation pressure ([1]; 381.64 K): 124.01 ± 1.1 kPa
- vapor or sublimation pressure ([1]; 381.85 K): 125.24 ± 1.1 kPa
- vapor or sublimation pressure ([1]; 382.22 K): 126.48 ± 1.1 kPa
- vapor or sublimation pressure ([1]; 382.73 K): 127.91 ± 1.1 kPa
- vapor or sublimation pressure ([1]; 382.95 K): 129.4 ± 1.1 kPa
- vapor or sublimation pressure ([1]; 383.6 K): 130.75 ± 1.2 kPa
- vapor or sublimation pressure ([1]; 383.68 K): 132.15 ± 1.2 kPa
- vapor or sublimation pressure ([1]; 384.33 K): 133.49 ± 1.2 kPa
- vapor or sublimation pressure ([1]; 384.77 K): 134.91 ± 1.2 kPa
- vapor or sublimation pressure ([1]; 384.84 K): 135.92 ± 1.2 kPa
- vapor or sublimation pressure ([1]; 385.06 K): 137.27 ± 1.2 kPa
- vapor or sublimation pressure ([1]; 385.35 K): 138.45 ± 1.2 kPa
- vapor or sublimation pressure ([1]; 385.72 K): 140.01 ± 1.2 kPa
- vapor or sublimation pressure ([1]; 386.06 K): 141.27 ± 1.2 kPa
- vapor or sublimation pressure ([1]; 386.74 K): 142.63 ± 1.2 kPa
- vapor or sublimation pressure ([1]; 386.84 K): 144.13 ± 1.2 kPa
- vapor or sublimation pressure ([1]; 387.1 K): 145.37 ± 1.2 kPa
- vapor or sublimation pressure ([1]; 387.47 K): 146.49 ± 1.2 kPa
- vapor or sublimation pressure ([1]; 387.61 K): 147.69 ± 1.2 kPa
- vapor or sublimation pressure ([1]; 387.98 K): 149.24 ± 1.2 kPa
- vapor or sublimation pressure ([1]; 388.41 K): 150.57 ± 1.2 kPa
- vapor or sublimation pressure ([1]; 388.92 K): 151.94 ± 1.3 kPa
- vapor or sublimation pressure ([1]; 389.02 K): 153.4 ± 1.3 kPa
- vapor or sublimation pressure ([1]; 389.36 K): 154.57 ± 1.3 kPa
- vapor or sublimation pressure ([1]; 390.02 K): 156.49 ± 1.3 kPa
- vapor or sublimation pressure ([1]; 390.16 K): 157.37 ± 1.3 kPa
- vapor or sublimation pressure ([1]; 390.36 K): 158.7 ± 1.3 kPa
- vapor or sublimation pressure ([1]; 390.53 K): 160.05 ± 1.3 kPa
- vapor or sublimation pressure ([1]; 390.89 K): 161.18 ± 1.3 kPa
- vapor or sublimation pressure ([1]; 391.07 K): 162.57 ± 1.3 kPa
- vapor or sublimation pressure ([1]; 391.55 K): 163.94 ± 1.3 kPa
- vapor or sublimation pressure ([1]; 391.98 K): 165.7 ± 1.3 kPa
- vapor or sublimation pressure ([1]; 392.2 K): 166.69 ± 1.3 kPa
- refractive index [2]: 1.3753 ± 0.0004
